Experimental data from ChEMBL document CHEMBL3779850, “Synthesis, in vitro evaluation, and molecular modeling investigation of benzenesulfonimide peroxisome proliferator-activated receptors α antagonists” (Eur J Med Chem, 2016).
The source made the active and inactive calls. The rule behind the calls is not given here.

How the values were obtained:
[1] = target: T1, Peroxisome proliferator-activated receptor gamma (Homo sapiens) (UniProt P37231); assay: Transactivation of PPARgamma (unknown origin) expressed in HEK293A cells at IC50 after 16 to 18 hrs by luciferase reporter assay; format: cell-based; conditions: HEK293-A
T1 sequence (whole entry): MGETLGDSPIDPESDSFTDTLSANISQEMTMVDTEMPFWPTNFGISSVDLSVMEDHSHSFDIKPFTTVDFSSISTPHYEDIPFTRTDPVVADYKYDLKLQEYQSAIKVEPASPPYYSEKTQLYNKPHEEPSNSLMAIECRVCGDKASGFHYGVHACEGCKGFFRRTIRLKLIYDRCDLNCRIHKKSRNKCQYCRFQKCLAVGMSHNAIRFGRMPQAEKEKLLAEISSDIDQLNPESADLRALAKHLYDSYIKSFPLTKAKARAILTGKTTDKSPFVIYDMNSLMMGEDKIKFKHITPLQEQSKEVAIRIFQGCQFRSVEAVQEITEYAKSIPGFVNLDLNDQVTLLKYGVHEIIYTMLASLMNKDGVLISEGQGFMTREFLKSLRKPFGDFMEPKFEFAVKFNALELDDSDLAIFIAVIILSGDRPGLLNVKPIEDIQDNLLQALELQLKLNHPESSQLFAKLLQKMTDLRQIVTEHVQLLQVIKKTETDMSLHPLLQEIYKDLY

[2] = target: T2, Peroxisome proliferator-activated receptor delta (Homo sapiens) (UniProt Q03181); assay: Transactivation of PPARdelta (unknown origin) expressed in HEK293A cells after 16 to 18 hrs by luciferase reporter assay; format: cell-based; conditions: HEK293-A
T2 sequence (whole entry): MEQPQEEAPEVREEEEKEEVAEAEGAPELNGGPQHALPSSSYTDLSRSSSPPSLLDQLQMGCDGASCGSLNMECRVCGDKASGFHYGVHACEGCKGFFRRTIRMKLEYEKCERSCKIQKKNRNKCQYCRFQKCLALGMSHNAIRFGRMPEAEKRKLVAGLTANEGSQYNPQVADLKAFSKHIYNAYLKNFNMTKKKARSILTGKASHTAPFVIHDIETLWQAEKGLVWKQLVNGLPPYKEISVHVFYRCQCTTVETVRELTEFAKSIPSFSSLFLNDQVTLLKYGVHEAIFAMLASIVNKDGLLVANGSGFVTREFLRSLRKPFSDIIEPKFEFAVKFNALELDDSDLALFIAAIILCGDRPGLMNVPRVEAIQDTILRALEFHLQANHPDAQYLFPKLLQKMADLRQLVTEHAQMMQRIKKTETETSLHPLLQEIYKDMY

[3] = target: T3, Peroxisome proliferator-activated receptor alpha (Homo sapiens) (UniProt Q07869); assay: Transactivation of PPARalpha (unknown origin) expressed in HEK293A cells at 150 uM after 16 to 18 hrs by luciferase reporter assay relative to control; format: cell-based; conditions: HEK293-A
T3 sequence (whole entry): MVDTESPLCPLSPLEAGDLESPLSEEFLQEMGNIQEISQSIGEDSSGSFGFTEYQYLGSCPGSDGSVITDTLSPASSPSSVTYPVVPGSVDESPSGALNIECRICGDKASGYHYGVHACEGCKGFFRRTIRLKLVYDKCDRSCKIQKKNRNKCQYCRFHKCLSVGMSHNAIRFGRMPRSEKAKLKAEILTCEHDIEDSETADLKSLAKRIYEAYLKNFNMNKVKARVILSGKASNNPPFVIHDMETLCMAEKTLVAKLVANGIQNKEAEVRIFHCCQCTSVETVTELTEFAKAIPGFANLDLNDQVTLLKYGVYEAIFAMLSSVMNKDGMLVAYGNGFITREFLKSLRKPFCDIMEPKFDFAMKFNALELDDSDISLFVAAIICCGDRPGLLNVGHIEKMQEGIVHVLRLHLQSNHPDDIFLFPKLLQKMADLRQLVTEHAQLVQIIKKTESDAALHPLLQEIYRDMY

[4] = target: T4, Peroxisome proliferator-activated receptor alpha (Homo sapiens, UniProt Q07869); assay: Antagonist activity at PPARalpha (unknown origin) expressed in HEK293A cells assessed as inhibition of GW7647-induced transactivation after 16 to 18 hrs by luciferase reporter assay; format: cell-based, HEK293-A
T4 sequence (Q07869 whole entry): T3 sequence (whole entry)

[5] = target: T1, Peroxisome proliferator-activated receptor gamma (Homo sapiens); assay: Antagonist activity at PPARgamma (unknown origin) expressed in HEK293A cells after 16 to 18 hrs by luciferase reporter assay; format: cell-based; conditions: HEK293-A
[6] = target: T3, Peroxisome proliferator-activated receptor alpha (Homo sapiens); assay: Antagonist activity at PPARalpha in human HepG2 cells assessed as inhibition of GW7647-induced CPT1 mRNA expression at 150 uM after 48 hrs by RT-PCR method; format: cell-based
[7] = target: T3, Peroxisome proliferator-activated receptor alpha (Homo sapiens); assay: Transactivation of PPARalpha in human HepG2 cells assessed as increase in CPT1 mRNA expression at 150 uM after 48 hrs by RT-PCR method; format: cell-based

Row | SMILES | Activity [1] | Activity [2] | fold change (FC) [3] | IC50 [4] [µM] | inhibition [5] | inhibition [6] | Activity [7]
1 | O=C(NS(=O)(=O)c1ccc(Cl)cc1)C(Sc1nc2cc(Cl)ccc2s1)c1ccccc1 (stereo not given) | Active | inactive | 0.9 |  |  |  | 
2 | CCCC(Sc1nc2cc(Cl)ccc2s1)C(=O)NS(=O)(=O)c1ccc(Cl)cc1 (stereo not given) |  | inactive | 0.04 | 6.86 | Active |  | 
3 | CC(C)(Oc1ccc(Cl)cc1)C(=O)NS(=O)(=O)c1ccccc1 |  |  | 0.47 | 0.65 |  |  | 
4 | CC(C)(Oc1ccc(C(=O)c2ccc(Cl)cc2)cc1)C(=O)NS(=O)(=O)c1ccccc1 |  |  | 0.08 | 7.65 |  |  | 
5 | CCCC(Sc1nc2cc(Cl)ccc2s1)C(=O)NS(=O)(=O)c1ccc(C)cc1 (stereo not given) |  | inactive | < 0.01 | 4.6 | Active |  | 
6 | O=C(NS(=O)(=O)c1ccc([N+](=O)[O-])cc1)C(Sc1nc2cc(Cl)ccc2s1)c1ccccc1 (stereo not given) |  | inactive | 0.22 | 0.82 | Active | Active | inactive
7 | CC(C)(Oc1ccc(CCNC(=O)c2ccc(Cl)cc2)cc1)C(=O)NS(=O)(=O)c1ccccc1 |  |  | 0.28 | 0.8 |  |  | 
8 | CCCC(Sc1nc2cc(Cl)ccc2s1)C(=O)NS(=O)(=O)c1ccc(NC(=O)c2ccccc2)cc1 (stereo not given) |  | inactive | 0.05 | 4.5 | Active |  | 
9 | CCCC(Sc1nc2cc(Cl)ccc2s1)C(=O)NS(=O)(=O)c1ccc(OC)cc1 (stereo not given) |  | inactive | < 0.01 | 0.68 | Active | Active | inactive
10 | CCCC(Sc1nc2cc(Cl)ccc2s1)C(=O)NS(=O)(=O)c1ccc(NC(C)=O)cc1 (stereo not given) |  | inactive | 0.2 | 108 | Active |  | 
11 | CCCC(Sc1nc2cc(Cl)ccc2s1)C(=O)NS(=O)(=O)c1ccc([N+](=O)[O-])cc1 (stereo not given) |  | inactive | 0.03 | 0.85 | Active | Active | inactive
12 | Cc1ccc(C)c(OCCCC(C)(C)C(=O)NS(=O)(=O)c2ccccc2)c1 |  |  | 0.05 | 8.8 |  |  | 
